Experimental data taken from US9861647B2 (Prelief Inc., priority 2007, dated 2018).

Assays:
[1] = tested on: ragweed sensitized Beagle dogs; test: Ragweed-induced nasal congestion, nasal cavity volume by acoustic rhinometry; format: in vivo
Description: Beagle dogs immunized with ragweed (RW) as puppies develop allergic immune responses. These allergic dogs show elevated total and specific serum IgE and increased numbers of eosinophils in their blood and lungs, as well as an increase in airway resistance and a decrease in dynamic compliance after a challenge with RW by inhalation or local instillation in defined lung lobes. Additionally, these dogs develop increased nasal congestion and inflammation following RW challenge in the nose.
Ragweed sensitized beagle dogs (n=5) with preexisiting nasal and airway allergic responses were utilized in the animal study described in this Example. Dogs served as their own control and initially were treated with vehicle (sterile water) and then rested for 5 weeks prior to receiving the test compound. […] Based on the aerosol testing only 1.6 mg/dog could be delivered by inhalation during a 15 minute exposure (20 mg/ml solution). […]
FIG. 1 summarizes the study design for characterizing the effects of CGP on rhinitis symptoms in ragweed sensitized Beagle dogs. The baseline nasal cavity volume was first measured 3 days (day −3) before each of the vehicle and CGP treatments. […]
Treatment occurred on Days 0 to 5 (only AM on Day 5). […] The pH of the compound (as administered for nasal inhalation) was recorded prior to administration. […]
Acoustic rhinometery was measured on experimental Days 3, 4, and 5. […]

[2] = tested on: human subject having a respiratory condition; test: Application of CGP (forced nasal lavage, spray/mist) to a human subject with post nasal drip, nasal obstruction and chronic cough; format: in vivo; conditions: one subject
Description: CGP was incorporated into samples of a lavage or a spray product at varying concentrations, along with different sweetening/moisturizing components (sorbitol, glycerin) at varying levels (0.5% to 7.5% by weight), appropriate food/drug grade fungistats and bacteristats (methyl paraben and benzalkonium chloride), and light flavorings of several types (peppermint, spearmint and orange) in some iterations.
A first human subject for laboratory/home trials was a person in good general health. […] The subject has experienced a decades-long post nasal drip (PND) as an adult, nasal obstruction (mucus, septum). The subject has experienced coughs that have been of weeks-long and, on occasion, months-long duration, following seasonal flu or colds. The subject has experienced chronic throat-clearing from PND and chronic cough even when not post-respiratory illness, which they ascribe to bronchitis. […] The subject breathed almost exclusively through mouth as a child because of nasal obstruction. The subject breathes through both nose and mouth as an adult, with breathing through nose occasionally mildly problematic, requiring active conscious engagement, although the subject was never “short of breath” in terms of lung capacity, etc.
The subject performed forced nasal lavage once daily for about two weeks. The forced nasal lavage was conducted intranasally over skin and normally in a shower. An aqueous solution or suspension of CGP at various concentration, such as about 7.5%, 3.75%, 2.5%, 2%, 1.5% by weight of dry CGP, was forced into one nostril and out of the other nostril using a closed plastic bottle with an internal stem feed. This procedure was repeated for each side of the nostrils. Some product was swallowed via nasal route and there was approx. 2 oz. fluid per nostril.
The subject applied CGP into their nostrils in a spray or a mist. A closed small plastic bottle with internal stem feed constructed to deliver fluid contents as mist was used. Typically, one application was performed in the morning. Each application consisted of two sprays per nostril, alternating sides, with full simultaneous deep breath inhalation or inspiration to draw the product up the nose and into the airway passages. The spray was also, on occasion, applied directly through the mouth to the throat with 1 or 2 sprays per application. An average spray delivery contained about 200 mg of a formulation of CGP per squeeze. The formulation contained about 2% to about 3.75% by weight of dry CGP.
In addition to the routine application of CGP to prevent or control symptoms associated with the respiratory system, the subject has also used CGP to relieve symptoms during an episode of a condition of airway/upper respiratory tract. […] At about 10:45 A.M., the subject applied a double-dose of NasoCell (1.75% CGP by weight) via nasal inhalation in each nostril. At about 11:30 AM, the subject's symptoms were much improved. The subject then self-administered another dose of NasoCell in each nostril. […] The subject had no trouble breathing while they were eating during lunch. […] The subject's throat was cleared of any obstructions and breathing sounds, and was wide open. The subject's nasal passages were reopened and voice cleared from an earlier morning huskiness, characteristic of a post nasal drip condition. It is noteworthy that this subject observed that after some weeks of usage, much reduced usage was required to “maintain”, and that this included the skipping of usage altogether, some days.

[3] = forced nasal lavage or spray/mist

calcium glycerophosphate
attenuation of nasal congestion at individual time points ([1]; 15 to 90 minutes post ragweed, Bonferroni posttest p<0.05): statistically significant at all time points from 15 to 90 minutes post ragweed
AUC of the change in nasal cavity volume between 0 and 90 min ([1]; vs vehicle control, n=5, Paired t-test p=0.0092): significantly increased
coughing [2, 3]: complete cessation of coughing
reduction of post nasal drip [2, 3]: 95-98%
decreased drainage ([2]; forced nasal lavage, 1.5-7.5% by weight CGP, about 10-20 minutes after the lavage): 90%
throat-clearing diminished compared with prior state ([2]; forced nasal lavage, about 20-60 minutes after the lavage): about 90%
symptoms (drip, cough, breathing) ([2]; forced nasal lavage, about 1 hr to 12/24 hr after the lavage): no drip, no cough, and easy open breathing
onset of relieving effects ([2]; nasal spray/mist, about 2% to 3.75% by weight CGP, two sprays per nostril): almost instantaneously upon application
duration of benefits post application ([2]; nasal spray/mist, about 2% to 3.75% by weight CGP): about four to eight hours
night breathing ([2]; single spray per nostril at bedtime): appeared to produce better night breathing
